Test results reported in patent US20090203709A1, “Pharmaceutical Dosage Form For Oral Administration Of Tyrosine Kinase Inhibitor” (ABBOTT LABORATORIES, priority 2008, published 2009).
Entries after “also recorded” stand apart in the source; their conditions may differ. Read-outs that look alike come from different tables or passages of the source.

What was measured:
[1] = Study M04-710 pharmacokinetics, multiple-dose escalation, non-hematologic malignancies; assay type: in vivo, human; settings: for AUC∞/D / Cmax/D / AUC0-24/D / Cmax / Tmax / AUC(0-t) / AUC(0-inf) / clearance / half-life: mean ± SD; for Cmax / Tmax / AUC(0-t) / AUC(0-inf) / clearance / half-life: human, plasma; for AUC(0-t): read-out: AUC0-24
Experimental: In study M04-710, blood samples for pharmacokinetic analysis were collected on Days 1 and 15 at the following times: 0 (pre-dose), 0.5, 1, 2, 3, 4, 6, 8, and 24 h (Day 1 only).
In study M05-756, blood samples for pharmacokinetic analysis were collected on Days 1 and 8 at the following times: 0 (pre-dose), 0.5, 1, 2, 3, 4, 6, 8, and 24 h (Day 1 only). Urine was collected for the 24 hour period following dosing on Day 13 through bedtime on Day 14 (non-hematologic malignancy study) and following dosing after Day 6 and through bedtime on Day 7 (AML/MDS study). Plasma and urine concentrations of ABT-869 were determined under the supervision of the Drug Analysis Department at Abbott using LCMS/MS. PK parameters were determined by noncompartmental analysis using WinNonlin Professional Version 5.0.1.

[2] = test system: non-hematologic malignancy; test: Efficacy in study M04-710; assay type: in vivo, human
Experimental: Study M04-710 and M05-756 are ongoing, open-label, multiple-dose escalation trials with ABT-869 administered daily for 21 consecutive days, with dose escalation scheduled in cohorts of 3 subjects. […] In both studies dosing was initiated at 10 mg QD, with subjects self-administering ABT-869 orally (admixed with approximately 60 mL of Ensure Plus or an approved alternative) at bedtime. Food was not allowed 2 h before or after dosing.
ECOG score of 0-2 in study of non-hematologic malignancies or 0-3 in AML/MDS study.

[3] = Study Day 1, 10 mg (~0.20 mg/kg)
[4] = Study Day 15, 10 mg (~0.20 mg/kg)
[5] = oral, 0.1 mg/kg, Study Day 15, 0.10 mg/kg
[6] = oral, 0.1 mg/kg, Study Day 1, 0.10 mg/kg
[7] = oral, 0.25 mg/kg, Study Day 1, 0.25 mg/kg
[8] = oral, 0.25 mg/kg, Study Day 15, 0.25 mg/kg
[9] = oral, 0.3 mg/kg, Study Day 15, 0.30 mg/kg
[10] = oral, 0.3 mg/kg, Study Day 1, 0.30 mg/kg
[11] = oral, 10 mg, Study Day 1, 10 mg (~0.20 mg/kg)
[12] = oral, 10 mg, Study Day 15, 10 mg (~0.20 mg/kg)
[13] = oral, Study Day 1, 10 mg (~0.20 mg/kg)

SMILES: Cc1ccc(F)c(NC(=O)Nc2ccc(-c3cccc4[nH]nc(N)c34)cc2)c1 [ABT-869, N-[4-(3-amino-1H-indazol-4-yl)phenyl]-N′-(2-fluoro-5-methylphenyl)urea]
- dose proportionality and time dependence of PK ([1]; 0.10 to 0.30 mg/kg QD, oral): dose-proportional and time-invariant; also recorded: approximately dose-proportional (0.10-0.30 mg/kg QD, oral) and time independent with minimal accumulation at day 15
- dose recovered in the urine as unchanged ABT-869 ([1]; 24 hour urine, N=4): ~4%
- AUC∞/D ([1]; Study Day 1, 0.10 mg/kg): 0.51 ± 0.21 µg·h/mL/mg
- Cmax/D ([1]; Study Day 1, 0.10 mg/kg): 0.020 ± 0.007 µg/mL/mg
- AUC∞/D ([1]; Study Day 1, 0.25 mg/kg): 0.41 ± 0.19 µg·h/mL/mg
- Cmax/D ([1]; Study Day 1, 0.25 mg/kg): 0.019 ± 0.006 µg/mL/mg
- AUC∞/D ([1]; Study Day 1, 0.30 mg/kg): 0.47 ± 0.19 µg·h/mL/mg
- Cmax/D ([1]; Study Day 1, 0.30 mg/kg): 0.020 ± 0.008 µg/mL/mg
- AUC∞/D [1, 3]: 0.41 ± 0.22 µg·h/mL/mg
- Cmax/D [1, 3]: 0.021 ± 0.012 µg/mL/mg
- AUC0-24/D ([1]; Study Day 15, 0.10 mg/kg): 0.35 ± 0.15 µg·h/mL/mg
- Cmax/D ([1]; Study Day 15, 0.10 mg/kg): 0.024 ± 0.008 µg/mL/mg
- AUC0-24/D ([1]; Study Day 15, 0.25 mg/kg): 0.30 ± 0.08 µg·h/mL/mg
- Cmax/D ([1]; Study Day 15, 0.25 mg/kg): 0.022 ± 0.006 µg/mL/mg
- AUC0-24/D ([1]; Study Day 15, 0.30 mg/kg): 0.30 ± 0.07 µg·h/mL/mg
- Cmax/D ([1]; Study Day 15, 0.30 mg/kg): 0.022 ± 0.008 µg/mL/mg
- AUC0-24/D [1, 4]: 0.35 ± 0.20 µg·h/mL/mg
- Cmax/D [1, 4]: 0.026 ± 0.019 µg/mL/mg
- Cmax [1, 5]: 140 ± 50 ng/mL
- Tmax [1, 5]: 3.7 ± 1.5 h
- AUC(0-t) [1, 5]: 2100 ± 900 ng·h/mL
- AUC(0-inf) [1, 6]: 3100 ± 1400 ng·h/mL
- Cmax [1, 6]: 120 ± 50 ng/mL
- Tmax [1, 6]: 3.5 ± 1.5 h
- clearance [1, 6]: 38.3 mL/min
- half-life [1, 6]: 19 ± 5.6 h
- Cmax [1, 7]: 260 ± 90 ng/mL
- Tmax [1, 7]: 2.7 ± 0.8 h
- Cmax [1, 8]: 310 ± 120 ng/mL
- Tmax [1, 8]: 3.5 ± 1 h
- Cmax [1, 9]: 390 ± 170 ng/mL
- Tmax [1, 9]: 3.3 ± 0.6 h
- AUC(0-t) [1, 9]: 5300 ± 1500 ng·h/mL
- AUC(0-inf) [1, 10]: 7900 ± 2000 ng·h/mL
- Cmax [1, 10]: 340 ± 90 ng/mL
- Tmax [1, 10]: 2 h
- clearance [1, 10]: 40 mL/min
- half-life [1, 10]: 22 ± 2.4 h
- Cmax [1, 11]: 210 ± 120 ng/mL
- Tmax [1, 11]: 3.3 ± 1.5 h
- Cmax [1, 12]: 220 ± 170 ng/mL
- Tmax [1, 12]: 3 h
- AUC(0-inf) ([1]; oral, Study Day 1, 0.25 mg/kg): 5800 ± 2900 ng·h/mL
- clearance ([1]; oral, Study Day 1, 0.25 mg/kg): 50 mL/min
- half-life ([1]; oral, Study Day 1, 0.25 mg/kg): 18.9 ± 6.2 h
- AUC(0-inf) [1, 13]: 4100 ± 2200 ng·h/mL
- clearance [1, 13]: 50 mL/min
- half-life [1, 13]: 14.4 ± 4.6 h
- AUC(0-t) ([1]; oral, Study Day 15, 0.25 mg/kg): 4300 ± 2100 ng·h/mL
- AUC(0-t) ([1]; oral, Study Day 15, 10 mg (~0.20 mg/kg)): 3000 ± 1500 ng·h/mL
- change in tumor size ([2]; NSCLC, CRC, neuroendocrine tumor, HCC, RCC soft tissue sarcoma and ovarian carcinoma): Reductions in tumor size observed
- NSCLC patients with partial remission / partial response ([2]; study M04-710): 2 (9%) patients (%)
- patients with SD for >1 year with no accumulation of toxicity ([2]; study M04-710): 4 patients
- patients with SD for ≧6 months ([2]; study M04-710): 6 (22%) patients (%)
- patients with stable disease (SD) for ≧3 months (4 treatment periods) ([2]; study M04-710): 15 (56%) patients (%)
